The record followed here is patent US10070645B2, “N-cycloalkyl-N-{[2-(1-substitutedcycloalkyl)phenyl]methylene}-(thio)carboxamide derivatives” (BAYER CROPSCIENCE AKTIENGESELLSCHAFT, priority 2013, dated 2018).

Values joined by “and” are separate entries in the source; they are usually repeats but may differ in a detail not shown here. Identical values can stand only once.

The subject of series [1] is Uromyces appendiculatus. Description: In vivo preventive test on Uromyces appendiculatus (bean rust). The note with it: for protection: dose of 100 and 10 ppm of active ingredient. As to the method:
In Vivo Preventive Test on Uromyces appendiculatus (Bean Rust)
(§1) Solvent: 5% by volume of Dimethyl sulfoxide • 10% by volume of Acetone
(§2) Emulsifier: 1 μL of Tween® 80 per mg of active ingredient
The active ingredients are made soluble and homogenized in a mixture of Dimethyl sulfoxide/Acetone/Tween® 80 and then diluted in water to the desired concentration.
The young plants of bean are treated by spraying the active ingredient prepared as described above. Control plants are treated only with an aqueous solution of Acetone/Dimethyl sulfoxide/Tween® 80.
After 24 hours, the plants are contaminated by spraying the leaves with an aqueous suspension of Uromyces appendiculatus spores. The contaminated bean plants are incubated for 24 hours at 20° C. and at 100% relative humidity and then for 10 days at 20° C. and at 70-80% relative humidity.
(§3) The test is evaluated 11 days after the inoculation. 0% means an efficacy which corresponds to that of the control plants while an efficacy of 100% means that no disease is observed.

The nature of series [2]: log P by HPLC on a reversed-phase column (C 18), EEC Directive 79/831 Annex V.A8. Type of series: physicochemical. The note with it: for logP: HPLC, reversed-phase column (C 18), 40° C., 0.1% aqueous formic acid and acetonitrile, linear gradient 10% to 90% acetonitrile. The method in brief:
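Reversed-phase C18 HPLC at 40° C, 0.1% aqueous formic acid/acetonitrile gradient from 10% to 90% acetonitrile. log P derived from retention times by linear interpolation between unbranched alkan-2-ones (3–16 carbons) of known log P.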

Series [3] has as its system Puccinia recondita. The series is described as follows: In vivo preventive test on Puccinia recondita (brown rust on wheat). The note with it: for protection: dose of 100 and 10 ppm of active ingredient. How it is done:
In Vivo Preventive Test on Puccinia recondita (Brown Rust on Wheat)
as §1, §2
The active ingredients are made soluble and homogenized in a mixture of Dimethyl sulfoxide/Acetone//Tween® 80 and then diluted in water to the desired concentration.
The young plants of wheat are treated by spraying the active ingredient prepared as described above. Control plants are treated only with an aqueous solution of Acetone/Dimethyl sulfoxide/Tween® 80. After 24 hours, the plants are contaminated by spraying the leaves with an aqueous suspension of Puccinia recondita spores. The contaminated wheat plants are incubated for 24 hours at 20° C. and at 100% relative humidity and then for 10 days at 20° C. and at 70-80% relative humidity.
as §3

Series [4] has as its system Phakopsora pachyrhizi. The series is described as follows: In vivo preventive test on Phakopsora pachyrhizi (soybean rust). The note with it: for protection: dose of 10 ppm of active ingredient. How it is done: In Vivo Preventive Test on Phakopsora pachyrhizi (Soybean Rust)
Solvent: 24.5 parts by weight of acetone • 24.5 parts by weight of N,N-dimethylacetamide
Emulsifier: 1 part by weight of alkylaryl polyglycol ether
To produce a suitable preparation of active compound, 1 part by weight of active compound is mixed with the stated amounts of solvent and emulsifier, and the concentrate is diluted with water to the desired concentration.
To test for preventive activity, young plants are sprayed with the preparation of active compound at the stated rate of application. After the spray coating has dried on, the plants are inoculated with an aqueous spore suspension of the causal agent of soybean rust (Phakopsora pachyrhizi) and stay for 24 h without light in an incubation cabinet at approximately 24° C. and a relative atmospheric humidity of 95%.
The plants remain in the incubation cabinet at approximately 24° C. and a relative atmospheric humidity of approximately 80% and a day/night interval of 12 h.
The test is evaluated 7 days after the inoculation. 0% means an efficacy which corresponds to that of the untreated control, while an efficacy of 100% means that no disease is observed.

The logP is a log measure of how a compound divides between an organic and an aqueous phase. Lower therefore signals a more hydrophilic compound. For orientation: chromatographic logP means a lipophilicity value derived from retention on a column.

`Cn1nc(C(F)F)c(C(=O)N(Cc2c(C3CC3)ccc(F)c2F)C2CC2)c1F` [54 from WO-2010/130767, N-cyclopropyl-N-(6-cyclopropyl-2,3-difluorobenzyl)-3-(difluoromethyl)-5-fluoro-1-methyl-1H-pyrazole-4-carboxamide, reference compound]: the Efficacy worked out at 29% in series [1] (Table B1, dose 10 ppm) and 100% in series [1] (Table B1, dose 100 ppm). In addition, in series [1], the protection result was “total to poor (less than 30%) protection”.
Consider `Cn1nc(C(F)F)c(C(=O)N(Cc2cc(F)ccc2C2(C)CC2)C2CC2)c1Cl` [I.067], for which the logP in series [2] amounted to 4.04. Further, the Efficacy was 98% in series [3] (Table A1, dose 10 ppm); 100% in series [3] (Table A1, dose 100 ppm); 93% in series [1] (Table B2, dose 10 ppm); 100% in series [1] (Table B2, dose 100 ppm). The protection entry in series [3] and in series [1] was “at least 90%” in each case.
Take `Cn1nc(C(F)F)c(C(=O)N(Cc2cc(F)ccc2C2(C)CC2)C2CC2)c1F` [I.066]: in series [2], the logP was 3.89. Besides, the Efficacy in series [4] (Table C3, dose 10 ppm) was 89%; in series [1] (Table B1, dose 10 ppm), 100%; in series [1] (Table B1, dose 100 ppm) it was 100%. For the same compound, in series [1], the protection entry is “total protection”.
In turn, `Cc1ccc(C2(C)CC2)c(CN(C(=O)c2c(C(F)F)nn(C)c2F)C2CC2)c1` [I.071] came in with a logP in series [2] of 4.19. The same compound returned an Efficacy in series [4] (Table C1, dose 10 ppm) of 99%. Moreover, the protection entry in series [4] is recorded as “at least 90%”.
As to `Cn1nc(C(F)F)c(C(=O)N(Cc2cc(F)ccc2C2(C)CC2)C2CC2)c1Cl` [I.8 from WO-2013/156559, 5-chloro-N-cyclopropyl-3-(difluoromethyl)-N-[5-fluoro-2-(1-methylcyclopropyl)benzyl]-1-methyl-1H-pyrazole-4-carboxamide, reference compound], the Efficacy in series [3] (Table A1, dose 10 ppm) came to 38%; in series [3] (Table A1, dose 100 ppm) it was 94%; in series [1] (Table B2, dose 10 ppm), 14%; in series [1] (Table B2, dose 100 ppm), 95%. The results for the protection entry in series [3] (listed as I.8) and in series [1] (listed as I.8) were “total to average (less than 40%) protection” and “total to poor (less than 20%) protection”, respectively.
For the compound `CCC1(c2cc(C)c(F)cc2CN(C(=O)c2c(C(F)F)nn(C)c2F)C2CC2)CC1` [I.106], the lipophilicity (logP) in series [2] was determined as 4.67. For the same compound, in series [4] (Table C3, dose 10 ppm), the Efficacy was 100% and 98%.
As for `Cn1nc(C(F)F)c(C(=O)N(Cc2cc(F)ccc2C2CC2)C2CC2)c1F` [123 from WO-2010/130767, N-cyclopropyl-N-(2-cyclopropyl-5-fluorobenzyl)-3-(difluoromethyl)-5-fluoro-1-methyl-1H-pyrazole-4-carboxamide, reference compound], the Efficacy in series [4] (Table C3, dose 10 ppm) was found to be 0%. The protection entry in series [4] is recorded as “no protection”.
Compound `Cn1nc(C(F)F)c(C(=O)N(Cc2cc(F)ccc2C2(C(F)F)CC2)C2CC2)c1F` [I.151, N-cyclopropyl-3-(difluoromethyl)-N-{2-[1-(difluoromethyl)-cyclopropyl]-5-fluorobenzyl}-5-fluoro-1-methyl-1H-pyrazole-4-carboxamide] showed a chromatographic logP in series [2] (reversed-phase HPLC column (C 18), preparation examples) of 3.39. In addition, the Efficacy in series [1] (Table B1, dose 10 ppm) is given as 100%; in series [1] (Table B1, dose 100 ppm), 100%. Also, the protection entry in series [1] was “total protection”.
In turn, `Cn1nc(C(F)F)c(C(=O)N(Cc2cc(Cl)ccc2C2CC2)C2CC2)c1F` [41 from WO-2010/130767, N-(5-chloro-2-cyclopropylbenzyl)-N-cyclopropyl-3-(difluoromethyl)-5-fluoro-1-methyl-1H-pyrazole-4-carboxamide, reference compound] yielded an Efficacy in series [4] (Table C2, dose 10 ppm) of 0%. Further, the protection entry in series [4] is “no protection”.
For `CCC1(c2ccc(Cl)cc2CN(C(=O)c2c(C(F)F)nn(C)c2F)C2CC2)CC1` [I.110], the logP in series [2] was found to be 4.59. In series [4] (Table C2, dose 10 ppm), this compound displayed an Efficacy of 98%. Further, the protection entry in series [4] was “at least 90%”.
The compound `Cc1ccc(C(F)(F)F)c(CN(C(=O)c2c(C(F)F)nn(C)c2F)C2CC2)c1` [12 from WO-2010/130767, N-cyclopropyl-3-(difluoromethyl)-5-fluoro-1-methyl-N-[5-methyl-2-(trifluoromethyl)benzyl]-1H-pyrazole-4-carboxamide, reference compound] displayed an Efficacy in series [4] (Table C1, dose 10 ppm) of 0%. In addition, the protection result in series [4] is listed as “no protection”.
